Legend:
T47D [1] = experiment: Cell cycle arrest in human T47D cells assessed as accumulation at G1 phase at 1000 nM (reference value: 45.5 to 57.8%); format: functional
MCF7 [2] = experiment: Cell cycle arrest in human MCF7 cells assessed as accumulation at G2/M phase at 1000 nM (reference value: 20.06 to 22.33%); format: functional
MFE-296 [3] = experiment: Cell cycle arrest in human MFE296 cells assessed as accumulation at G2/M phase at 100 nM (reference value: 15.71 to 17.04%); format: functional
MFE-280 [4] = experiment: Induction of apoptosis in human MFE280 cells assessed as late apoptotic cells at 300 nM by 7-AAD/Annexin staining-based assay (reference value: 6 to 7.4%); format: functional
A2780 [5] = experiment: Cell cycle arrest in human A2780 cells assessed as accumulation at G1 phase at 100 nM (reference value: 55.26 to 55.66%); format: functional
MCF7 [6] = experiment: Induction of apoptosis in human MCF7 cells assessed as late apoptotic cells at 1000 nM by 7-AAD/Annexin staining-based assay (reference value: 1 to 2.1%); format: functional
MFE-280 [7] = experiment: Induction of apoptosis in human MFE280 cells assessed as early apoptotic cells at 1000 nM by 7-AAD/Annexin staining-based assay (reference value: 5.1 to 6.2%); format: functional
MCF7 [8] = experiment: Cell cycle arrest in human MCF7 cells assessed as accumulation at S phase at 300 nM (reference value: 25.36 to 26.82%); format: functional
A2780 [9] = experiment: Cell cycle arrest in human A2780 cells assessed as accumulation at G1 phase at 1000 nM (reference value: 55.26 to 55.66%); format: functional
PC-3 [10] = experiment: Cell cycle arrest in human p53-null PC3 cells assessed as accumulation at G2/M phase at 100 nM (reference value: 18.37 to 18.96%); format: functional
T47D [11] = experiment: Cell cycle arrest in human T47D cells assessed as accumulation at G2/M phase at 100 nM (reference value: 20.58 to 28.8%); format: functional
MFE-280 [12] = experiment: Cell cycle arrest in human MFE280 cells assessed as accumulation at G1 phase at 300 nM (reference value: 64.99 to 67.86%); format: functional
PC-3 [13] = experiment: Cell cycle arrest in human p53-null PC3 cells assessed as accumulation at G2/M phase at 1000 nM (reference value: 18.37 to 18.96%); format: functional
MFE-280 [14] = experiment: Cell cycle arrest in human MFE280 cells assessed as accumulation at G2/M phase at 1000 nM (reference value: 16.43 to 17.9%); format: functional
T47D [15] = experiment: Cell cycle arrest in human T47D cells assessed as accumulation at G2/M phase at 300 nM (reference value: 20.58 to 28.8%); format: functional
A2780 [16] = experiment: Cell cycle arrest in human A2780 cells assessed as accumulation at G1 phase at 300 nM (reference value: 55.26 to 55.66%); format: functional
PC-3 [17] = experiment: Cell cycle arrest in human p53-null PC3 cells assessed as accumulation at G1 phase at 100 nM (reference value: 50.77 to 51.16%); format: functional
MCF7 [18] = experiment: Cell cycle arrest in human MCF7 cells assessed as accumulation at G1 phase at 100 nM (reference value: 47.47 to 52.3%); format: functional
A2780 [19] = experiment: Cell cycle arrest in human A2780 cells assessed as accumulation at G2/M phase at 1000 nM (reference value: 19.42 to 20.43%); format: functional
PC-3 [20] = experiment: Cell cycle arrest in human p53-null PC3 cells assessed as accumulation at G1 phase at 300 nM (reference value: 50.77 to 51.16%); format: functional
T47D [21] = experiment: Cell cycle arrest in human T47D cells assessed as accumulation at S phase at 100 nM (reference value: 19.89 to 24.55%); format: functional
T47D [22] = experiment: Cell cycle arrest in human T47D cells assessed as accumulation at G2/M phase at 1000 nM (reference value: 20.58 to 28.8%); format: functional
A2780 [23] = experiment: Cell cycle arrest in human A2780 cells assessed as accumulation at G2/M phase at 100 nM (reference value: 19.42 to 20.43%); format: functional
T47D [24] = experiment: Cell cycle arrest in human T47D cells assessed as accumulation at S phase at 1000 nM (reference value: 19.89 to 24.55%); format: functional
MFE-296 [25] = experiment: Induction of apoptosis in human MFE296 cells assessed as nuclear debris at 300 nM by 7-AAD/Annexin staining-based assay (reference value: 0.4 to 0.8%); format: functional
T47D [26] = experiment: Cell cycle arrest in human T47D cells assessed as accumulation at G1 phase at 100 nM (reference value: 45.5 to 57.8%); format: functional
A2780 [27] = experiment: Cell cycle arrest in human A2780 cells assessed as accumulation at S phase at 300 nM (reference value: 21.16 to 22.81%); format: functional
PC-3 [28] = experiment: Cell cycle arrest in human p53-null PC3 cells assessed as accumulation at G1 phase at 1000 nM (reference value: 50.77 to 51.16%); format: functional
MFE-280 [29] = experiment: Cell cycle arrest in human MFE280 cells assessed as accumulation at S phase at 300 nM (reference value: 14.14 to 15.66%); format: functional
A2780 [30] = experiment: Cell cycle arrest in human A2780 cells assessed as accumulation at S phase at 1000 nM (reference value: 21.16 to 22.81%); format: functional
MCF7 [31] = experiment: Cell cycle arrest in human MCF7 cells assessed as accumulation at G1 phase at 300 nM (reference value: 47.47 to 52.3%); format: functional
PC-3 [32] = experiment: Cell cycle arrest in human p53-null PC3 cells assessed as accumulation at G2/M phase at 300 nM (reference value: 18.37 to 18.96%); format: functional
MCF7 [33] = experiment: Antiproliferative activity against human MCF7 cells at 10 uM relative to control; format: functional, cell-based
MFE-280 [34] = experiment: Cell cycle arrest in human MFE280 cells assessed as accumulation at S phase at 100 nM (reference value: 14.14 to 15.66%); format: functional
A2780 [35] = experiment: Cell cycle arrest in human A2780 cells assessed as accumulation at G2/M phase at 300 nM (reference value: 19.42 to 20.43%); format: functional
MFE-296 [36] = experiment: Cell cycle arrest in human MFE296 cells assessed as accumulation at S phase at 300 nM (reference value: 16.96 to 19.19%); format: functional
MCF7 [37] = experiment: Cell cycle arrest in human MCF7 cells assessed as accumulation at S phase at 100 nM (reference value: 25.36 to 26.82%); format: functional
MFE-296 [38] = experiment: Cell cycle arrest in human MFE296 cells assessed as accumulation at G1 phase at 300 nM (reference value: 61.05 to 64.87%); format: functional
PC-3 [39] = experiment: Cell cycle arrest in human p53-null PC3 cells assessed as accumulation at S phase at 1000 nM (reference value: 29.08 to 29.33%); format: functional
A2780 [40] = experiment: Antiproliferative activity against human A2780 cells; format: functional, cell-based

`O=C(Nc1ccc(-c2cccc(Cl)c2)cn1)c1cncnc1` was tested, and the Activity (T47D [1]) was 31.65%, the Activity (MCF7 [2]) was 63.38% and the Activity (MFE-296 [3]) was 21.13%. For the same compound, the Activity (MFE-280 [4]) was 9.5%, the Activity (A2780 [5]) was 58.01% and the Activity (MCF7 [6]) was 2.4%. The Activity (MFE-280 [7]) was 5.9%, the Activity (MCF7 [8]) was 23.22% and the Activity (A2780 [9]) was 13.03%. The Activity (PC-3 [10]) was 25.26%, the Activity (T47D [11]) was 19.68% and the Activity (MFE-280 [12]) was 39.17%. The Activity (PC-3 [13]) was 76.06%, the Activity (MFE-280 [14]) was 46.61% and the Activity (T47D [15]) was 22.28%. It also gave an Activity (A2780 [16]) of 24.74%, an Activity (PC-3 [17]) of 51.5% and an Activity (MCF7 [18]) of 43.58%. It also gave an Activity (A2780 [19]) of 77.58%, an Activity (PC-3 [20]) of 14.74% and an Activity (T47D [21]) of 22.91%. For the same compound, the Activity (T47D [22]) was 43.07%, the Activity (A2780 [23]) was 20.89% and the Activity (T47D [24]) was 21.38%. For the same compound, the Activity (MFE-296 [25]) was 2.6%, the Activity (T47D [26]) was 54.23% and the Activity (A2780 [27]) was 22.35%. It also gave an Activity (PC-3 [28]) of 5.07%, an Activity (MFE-280 [29]) of 21.09% and an Activity (A2780 [30]) of 7.1%. For the same compound, the Activity (MCF7 [31]) was 16.22%, the Activity (PC-3 [32]) was 60.72% and the EC50 (MCF7 [33]) was 29 nM. For the same compound, the Activity (MFE-280 [34]) was 18.71%, the Activity (A2780 [35]) was 30.36% and the Activity (MFE-296 [36]) was 20.61%. The Activity (MCF7 [37]) was 19.1%, the Activity (MFE-296 [38]) was 13.78% and the Activity (PC-3 [39]) was 17.78%. It also gave an EC50 (A2780 [40]) of 55 nM.

From ChEMBL document CHEMBL4043145, “Pyridine-pyrimidine amides that prevent HGF-induced epithelial scattering by two distinct mechanisms” (Bioorg Med Chem Lett, 2017)
